Data set [1] in a line: Circular dichroism (secondary structure). Format: physicochemical. The note with it: 25 μM peptide in water, room temperature, 195-250 nm. How it is done:
Circular dichroism (DC). CD spectra were gathered on an Aviv model 202 spectropolarimeter. Samples were prepared by diluting stock peptide solutions in water (0.5%) to a working concentration of 25 μM. Samples were analysed at room temperature in a quartz cuvette with a path length of 0.3 cm and in the wavelength range 195-250 nm.
Circular dichroism. CD spectra were obtained for each peptide sequence to assess its secondary structure. The secondary structure identifies ordered structures within a polypeptide such as α-helices and β-sheets. […] (Havel, 1996).
A general note: CD spectra are sensitive to the conformation of chiral molecules.

In data set [2] the test system is human aortic endothelial cells (HAEC). Nature of the data set: HAEC proliferation and competition assays with soluble peptide motifs. Format: cell-based. Conditions: 100% RAD16-I, no soluble peptide, improved cell isolation. As to the method: Meanwhile, human aortic endothelial cells (HAEC) (CC-2535, Cambrex, MD) that had been maintained under standard culture conditions (passage 5-6) were harvested at 80% confluence using trypsin and loaded on top of the preformed peptide scaffolds at a cell density of 8×10^4 cells/cm^2 and cultured in the cell culture incubator at 37° C. with 5% CO2. Cell attachment assays were performed one hour after the initial cell loading. To perform the assays, the covering media was removed, and unattached cells were counted on a hematocytometer. Cell counting was performed by mechanically disrupting the scaffold containing cells by pipetting up and down and then counting cells on a hematocytometer after performing Trypan blue (T 9906, Sigma, MO) exclusion assay staining to assess cell viability. In some experiments, for comparison, EC were cultured on inserts coated with Matrigel or collagen (1.5 mg/ml, i.e. 0.15%) according to standard protocols.
Competition assays with free soluble peptide sequences. HAEC were cultured as described on peptide scaffolds in cell culture inserts as described above. For each scaffold, the corresponding soluble motif sequence, or one of the other motifs not present in the scaffold, was added to the media of HAEC cultures at a final concentration of 400 μg/ml. Half of the media was changed every other day. […] The next day, cell numbers were evaluated as described above. […]

The test system of a further data set is neurons. Conditions: neurons grown on surface; cited from earlier work.
The nature of data set [3]: Rheometry (dynamic frequency and time sweep). The class given is physicochemical. How it is done:
Rheometry. Rheological assays were performed on a 50 mm parallel plate ARES strain controlled rheometer (Rheometric Scientific, NJ). Samples were dissolved in deionized water at a final concentration of 2.9 mM and sonicated for one hour the day prior to the analysis. A volume of 1 ml was loaded on the lower plate, and the upper plate was set to a gap size between 0.4-0.45 mm. Dynamic frequency sweep tests were performed in a range of frequencies from 100 to 0.1 radis. After the test, PBS was added around the lower plate in order to promote gelation. The peptide was allowed to gel for 10 min at room temperature before the test was performed once again. After a dynamic frequency sweep test, the behavior of samples over time was tested. A dynamic time sweep test was performed at 10 rad/s for 5 min.
Rheology. A dynamic strain sweep was first performed on RAD16-I to set the linear viscoelastic region of the test and to select a fixed strain for the dynamic frequency sweep tests (FIG. 19). This linear viscoelastic range is defined by constant moduli, G′ and G″. It is important to select a strain within this range to obtain reliable results (Schramm, 1994). The strain selected was 0.01 (dimensionless) and was applied in all assays.

Data set [4] can be described thus: Gel formation by visual observation. Format: physicochemical. Conditions: 1% solution, standing overnight at room temperature, no PBS. As to the method:
The peptides used in the examples are based on the self-assembling peptide RAD16-I. The peptide was modified to include a variety of peptide motifs previously identified as mediating various biological activities. Physicochemical and structural properties of the peptides were assessed using a variety of techniques. Peptide solubility in aqueous solution was tested. The ability of the peptides to self-assemble into higher order structures was examined. In particular, the ability of the peptides to form various secondary structures (e.g., β-sheet) was determined using circular dichroism. The ability of the peptides to self-assemble into nanofibers was evaluated using atomic force microscopy (AFM). Gel formation was assessed by visual observation and rheology.
Gel formation. Each peptide solution at 1% was used to assess hydrogel formation. […] For all the soluble peptides, gel formation was readily observed upon the addition of equal volumes of phosphate buffered saline (PBS).

Data set [5] deals with human aortic endothelial cells (HAEC). In words: Western blot of laminin 1 and collagen IV production by HAEC. Conditions: compared to conventional 2D tissue culture plates. The class given is cell-based. An excerpt:
Western blots. Harvested HAEC for each culture condition were counted and lysed with sample buffer (NP0007, Invitrogen, CA) containing 2% (v/v) β-mercaptoethanol and a cocktail of protease inhibitors (1836153, Complete Mini, Roche, Penzberg, Germany) to avoid proteolysis. Cell lysates were run on a 10% PAGE system in MOPS buffer (NP0301, NP0001 Invitrogen, CA), and proteins were transferred to PVDF membranes (LC2002, Invitrogen, CA) to perform western blots. Briefly, membranes were blocked with 2% BSA and 0.1% Triton-X 100 in PBS. Two primary antibodies were used: mouse monoclonal IgG, anti human laminin γ1 [laminin B2 chain] (1 μg/ml, B1920, Chemicon, CA) and mouse monoclonal IgG, anti human collagen IV [7S domain] (2 μg/ml, MAB3326, Chemicon, CA). A secondary antibody, goat polyclonal anti-mouse IgG-HRP conjugated (1:5000 dilution, sc-2302, Santa Cruz Biotechnology, CA) was used for detection by chemiluminescence (sc-2048, Santa Cruz Biotechnology, CA). Protein bands were visualized by exposure to an X-ray film (Biomax Film, Kodak, N.Y.).
(In general: Immunoblotting shows a protein as a band on a membrane.)

For the next data set, the system named is Liver progenitor cells. Conditions: encapsulated cells; cited from earlier work.

On to `CC(=O)N[C@@H](CCCNC(=N)N)C(=O)N[C@@H](C)C(=O)N[C@@H](CC(=O)O)C(=O)N[C@@H](C)C(=O)N[C@@H](CCCNC(=N)N)C(=O)N[C@@H](C)C(=O)N[C@@H](CC(=O)O)C(=O)N[C@@H](C)C(=O)N[C@@H](CCCNC(=N)N)C(=O)N[C@@H](C)C(=O)N[C@@H](CC(=O)O)C(=O)N[C@@H](C)C(=O)N[C@@H](CCCNC(=N)N)C(=O)N[C@@H](C)C(=O)N[C@@H](CC(=O)O)C(=O)N[C@@H](C)C(N)=O` [RAD16-I, AcN-(RADA)4-CONH2], for which the “Secondary structure (CD)” value in data set [1] is on record as “β-sheet”. Besides, in data set [2], the “HAEC proliferation lower than on scaffolds made from peptide blends” value is 2-2.5 fold. The “neurite outgrowth and synapse formation on peptide structure” value in the data set on neurons was “able to serve as a substrate for neurite outgrowth and formation of functionally active synapses”. Moreover, in data set [3] (PBS added, 10 minutes gelation), the “increase of both moduli (G′, G″) upon addition of salts” value is given as “≈ 10 fold”. Further, in data set [3] (after addition of PBS, dynamic frequency sweep, strain 0.01, 2.9 mM peptide), the “storage modulus G′” value is 2.5×10^3 Pa. Besides, the “Increased viscosity by visual inspection” value in data set [4] was “Increased viscosity was observed”. The “laminin 1 and collagen IV deposition by HAEC” value in data set [5] is “significant enhancement of laminin 1 and collagen IV deposition”. Further, the hepatocyte marker expression entry in the data set on Liver progenitor cells was “expressed markers indicative of hepatocyte phenotype”.

The values are drawn from patent publication US7713923B2, “Self-assembling peptides incorporating modifications and methods of use thereof” (Massachusetts Institute of Technology, priority 2003, dated 2010).
